The test system of this assay is calcium channel (e.g., L-type, N-type, etc.) currents. Nature of the assay: HEK assay, whole-cell voltage clamp in transiently transfected HEK-293T/17 cells. In kind it is cell-based. The conditions noted are these: whole-cell patch clamp, steady-state concentration-response. How it is done: HEK-293T/17 cells are transiently transfected in a similar manner as described in FuGENE 6 Package Insert Version 7, April 2002, Roche Applied Science, Indianapolis, Ind. The cells are plated at 2.5×10^5 cells in 2 mL in a 6-well plate in incubator for one night and achieve a 30˜40% confluence. In a small sterile tube, add sufficient serum-free medium as diluent for FuGENE Transfection Reagent (Roche Applied Science, Indianapolis, Ind.), to a total volume of 100 μL. Add 3 μL of FuGENE 6 Reagent directly into this medium. The mixture is tapped gently to mix. 2 μg of DNA solution (0.8-2.0 μg/μL) is added to the prediluted FuGENE 6 Reagent from above. The DNA/Fugene 6 mixture is gently pipeted to mix the contents and incubated for about 15 minutes at room temperature. The complex mixture is then added to the HEK-293T/17 cells, distributing it around the well, and swirled to ensure even dispersal. The cells are returned to the incubator for 24 hrs. The transfected cells are then replated at density 2.5×10^5 in a 35 mm dish with 5 glass coverslips and grow in low serum(1%) media for 24 hrs. Coverslips with isolated cells are then transferred into chamber and calcium channel (e.g., L-type, N-type, etc.) current or other currents for counter screening are recorded from the transiently transfected HBEK-293T/17 cells. […]
(In general: The patch-clamp technique gives a direct electrical read-out from membranes.)

For `Fc1ccc(Cc2nc(Cc3nc4ccccc4[nH]3)cn2-c2ccc(Cl)cc2)cc1` [Compound 2, 2-[1-(4-Chloro-phenyl)-2-(4-fluoro-benzyl)-1H-imidazol-4-ylmethyl]-1H-benzoimidazole], the half-maximal inhibitory concentration (IC50) is 0.252 µM.

The term IC50 denotes the midpoint of a concentration-inhibition curve.

(Values after patent US20080242716A1, “Ion Channel Modulators” (priority 2004, published 2008).)
